Results as given in ChEMBL document CHEMBL1153550, “In vitro study of Candida tropicalis isolates exhibiting paradoxical growth in the presence of high concentrations of caspofungin” (2007).
Values after ≈ are worked out from the molar mass of the structure shown. Active and inactive are the calls of the source. The calls are words filed in the database; no cut-off is given here.

Legend:
Candida tropicalis [1] = experiment: Antifungal activity against 10^5 CFU/ml Candida tropicalis isolate 6 in antibiotic medium 3 at 6.25 ug/ml treated for 24 hrs followed by incubation in drug free medium for 48 hrs by broth microdilution method; type: functional, organism-based
Candida tropicalis [2] = experiment: Antifungal activity against 10^5 CFU/ml Candida tropicalis isolate 13 in RPMI 1640 medium at 12.5 ug/ml treated for 48 hrs followed by incubation in drug free medium for 48 hrs by broth microdilution method; type: functional, organism-based
Candida tropicalis [3] = experiment: Antifungal activity against 2 x 10^7 CFU/ml Candida tropicalis isolate 6 in antibiotic medium 3 after 24 hrs by broth microdilution method; type: functional; details: isolate 6, 24 h
Candida tropicalis [4] = experiment: Antifungal activity against 10^5 CFU/ml Candida tropicalis clinical isolate in antibiotic medium 3 treated for 24 hrs followed by incubation in drug free medium for 48 hrs by broth microdilution method; type: functional, organism-based
Candida tropicalis [5] = experiment: Antifungal activity against 10^5 CFU/ml Candida tropicalis isolate 15 in RPMI 1640 medium at 12.5 ug/ml treated for 48 hrs followed by incubation in drug free medium for 48 hrs by broth microdilution method; type: functional, organism-based
Candida tropicalis [6] = experiment: Antifungal activity against > 2 x 10^7 CFU/ml Candida tropicalis isolate 7 in RPMI 1640 medium assessed as partial growth after 24 hrs by broth microdilution method; type: functional, organism-based
Candida tropicalis [7] = experiment: Antifungal activity against Candida tropicalis isolate 4 in RPMI 1640 medium assessed as paradoxical growth at 6.25 ug/ml after 48 hrs by broth microdilution method; type: functional, organism-based
Candida tropicalis [8] = experiment: Antifungal activity against > 2 x 10^7 CFU/ml Candida tropicalis isolate 10 in RPMI 1640 medium assessed as partial growth after 24 hrs by broth microdilution method; type: functional, organism-based
Candida tropicalis [9] = experiment: Antifungal activity against 2 x 10^7 CFU/ml Candida tropicalis isolate 9 in antibiotic medium 3 after 24 hrs by broth microdilution method; type: functional; details: isolate 9, 24 h
Candida tropicalis [10] = experiment: Antifungal activity against 2 x 10^7 CFU/ml Candida tropicalis isolate 2 in RPMI 1640 medium after 24 hrs by broth microdilution method; type: functional; details: isolate 2, 24 h
Candida tropicalis [11] = experiment: Antifungal activity against Candida tropicalis isolate 5 in RPMI 1640 medium assessed as paradoxical growth at 6.25 ug/ml after 48 hrs by broth microdilution method; type: functional, organism-based
Candida tropicalis [12] = experiment: Antifungal activity against 2 x 10^7 CFU/ml Candida tropicalis isolate 15 in RPMI 1640 medium after 24 hrs by broth microdilution method; type: functional; details: isolate 15, 24 h
Candida tropicalis [13] = experiment: Antifungal activity Candida tropicalis ATCC 750 in RPMI 1640 medium at 12.5 ug/ml after 24 hrs by time-kill assay; type: functional, organism-based
Candida tropicalis [14] = experiment: Antifungal activity against 2 x 10^7 CFU/ml Candida tropicalis ATCC 750 in RPMI 1640 medium after 24 hrs by broth microdilution method; type: functional; details: ATCC 750, 24 h
Candida tropicalis [15] = experiment: Antifungal activity against Candida tropicalis isolate 1 in antibiotic medium 3 assessed as paradoxical growth at 12.5 ug/ml after 24 hrs by broth microdilution method; type: functional, organism-based
Candida tropicalis [16] = experiment: Antifungal activity against 10^5 CFU/ml Candida tropicalis isolate 6 in antibiotic medium 3 at 12.5 ug/ml treated for 24 hrs followed by incubation in drug free medium for 48 hrs by broth microdilution method; type: functional, organism-based
Candida tropicalis [17] = experiment: Antifungal activity against 2 x 10^7 CFU/ml Candida tropicalis isolate 15 in antibiotic medium 3 after 24 hrs by broth microdilution method; type: functional; details: isolate 15, 24 h
Candida tropicalis [18] = experiment: Antifungal activity against Candida tropicalis isolate 13 in RPMI 1640 medium assessed as paradoxical growth at 12.5 ug/ml after 48 hrs by broth microdilution method; type: functional, organism-based
Candida tropicalis [19] = experiment: Antifungal activity against 2 x 10^7 CFU/ml Candida tropicalis isolate 8 in antibiotic medium 3 after 24 hrs by broth microdilution method; type: functional; details: isolate 8, 24 h
Candida tropicalis [20] = experiment: Antifungal activity against 2 x 10^7 CFU/ml Candida tropicalis isolate 7 in RPMI 1640 medium after 24 hrs by broth microdilution method; type: functional; details: isolate 7, 24 h
Candida tropicalis [21] = experiment: Antifungal activity against > 2 x 10^7 CFU/ml Candida tropicalis ATCC 750 in antibiotic medium 3 assessed as partial growth after 24 hrs by broth microdilution method; type: functional, organism-based
Candida tropicalis [22] = experiment: Antifungal activity against 10^5 CFU/ml Candida tropicalis isolate 10 in RPMI 1640 medium at 12.5 ug/ml treated for 24 hrs followed by incubation in drug free medium for 48 hrs by broth microdilution method; type: functional, organism-based
Candida tropicalis [23] = experiment: Antifungal activity against 10^5 CFU/ml Candida tropicalis isolate 9 in RPMI 1640 medium at 12.5 ug/ml treated for 24 hrs followed by incubation in drug free medium for 48 hrs by broth microdilution method; type: functional, organism-based
Candida tropicalis [24] = experiment: Antifungal activity against 2 x 10^7 CFU/ml Candida tropicalis isolate 13 in antibiotic medium 3 after 24 hrs by broth microdilution method; type: functional; details: isolate 13, 24 h
Candida tropicalis [25] = experiment: Antifungal activity against 2 x 10^7 CFU/ml Candida tropicalis isolate 1 in antibiotic medium 3 after 24 hrs by broth microdilution method; type: functional; details: isolate 1, 24 h
Candida tropicalis [26] = experiment: Antifungal activity against Candida tropicalis isolate 6 in RPMI 1640 medium assessed as paradoxical growth at 6.25 ug/ml after 24 hrs by broth microdilution method; type: functional, organism-based
Candida tropicalis [27] = experiment: Antifungal activity against 10^5 CFU/ml Candida tropicalis isolate 1 in RPMI 1640 medium at 12.5 ug/ml treated for 48 hrs followed by incubation in drug free medium for 48 hrs by broth microdilution method; type: functional, organism-based
Candida tropicalis [28] = experiment: Antifungal activity against Candida tropicalis isolate 5 in RPMI 1640 medium assessed as paradoxical growth at 12.5 ug/ml after 24 hrs by broth microdilution method; type: functional, organism-based
Candida tropicalis [29] = experiment: Antifungal activity against 10^5 CFU/ml Candida tropicalis clinical isolate in RPMI 1640 medium treated for 24 hrs followed by incubation in drug free medium for 48 hrs by broth microdilution method; type: functional, organism-based
Candida tropicalis [30] = experiment: Antifungal activity against 2 x 10^7 CFU/ml Candida tropicalis isolate 4 in RPMI 1640 medium assessed as paradoxical growth at 12.5 ug/ml after 24 hrs by broth microdilution method; type: functional, organism-based
Candida tropicalis [31] = experiment: Antifungal activity against 2 x 10^7 CFU/ml Candida tropicalis isolate 13 in RPMI 1640 medium after 24 hrs by broth microdilution method; type: functional; details: isolate 13, 24 h
Candida tropicalis [32] = experiment: Antifungal activity against 2 x 10^7 CFU/ml Candida tropicalis isolate 1 in RPMI 1640 medium after 24 hrs by broth microdilution method; type: functional; details: isolate 1, 24 h
Candida tropicalis [33] = experiment: Antifungal activity against 2 x 10^7 CFU/ml Candida tropicalis isolate 11 in antibiotic medium 3 after 24 hrs by broth microdilution method; type: functional; details: isolate 11, 24 h
Candida tropicalis [34] = experiment: Antifungal activity against 2 x 10^7 CFU/ml Candida tropicalis ATCC 750 in antibiotic medium 3 after 24 hrs by broth microdilution method; type: functional; details: ATCC 750, 24 h
Candida tropicalis [35] = experiment: Antifungal activity against Candida tropicalis ATCC 750 in RPMI 1640 medium assessed as paradoxical growth at 6.25 ug/ml after 48 hrs by broth microdilution method; type: functional, organism-based
Candida tropicalis [36] = experiment: Antifungal activity against 10^5 CFU/ml Candida tropicalis isolate 6 in RPMI 1640 medium at 12.5 ug/ml treated for 48 hrs followed by incubation in drug free medium for 48 hrs by broth microdilution method; type: functional, organism-based

- MIC (Candida tropicalis [3]): 0.024 µg/mL (≈ 0.022 µM)
- MIC (Candida tropicalis [9]): 0.024 µg/mL (≈ 0.022 µM)
- MIC (Candida tropicalis [10]): 0.024 µg/mL (≈ 0.022 µM)
- MIC (Candida tropicalis [12]): 0.024 µg/mL (≈ 0.022 µM)
- MIC (Candida tropicalis [14]): 0.024 µg/mL (≈ 0.022 µM)
- MIC (Candida tropicalis [17]): 0.024 µg/mL (≈ 0.022 µM)
- MIC (Candida tropicalis [19]): 0.024 µg/mL (≈ 0.022 µM)
- MIC (Candida tropicalis [20]): 0.024 µg/mL (≈ 0.022 µM)
- MIC (Candida tropicalis [24]): 0.024 µg/mL (≈ 0.022 µM)
- MIC (Candida tropicalis [25]): 0.024 µg/mL (≈ 0.022 µM)
- MIC (Candida tropicalis [31]): 0.024 µg/mL (≈ 0.022 µM)
- MIC (Candida tropicalis [32]): 0.024 µg/mL (≈ 0.022 µM)
- MIC (Candida tropicalis [33]): 0.024 µg/mL (≈ 0.022 µM)
- MIC (Candida tropicalis [34]): 0.024 µg/mL (≈ 0.022 µM)
SMILES: CC[C@H](C)C[C@H](C)CCCCCCCCC(=O)N[C@H]1C[C@@H](O)[C@@H](NCCN)NC(=O)[C@@H]2[C@@H](O)CCN2C(=O)[C@H]([C@H](O)CCN)NC(=O)[C@H]([C@H](O)[C@@H](O)c2ccc(O)cc2)NC(=O)[C@@H]2C[C@@H](O)CN2C(=O)[C@H]([C@@H](C)O)NC1=O [CASPOFUNGIN]
- Activity (Candida tropicalis [1]): inactive
- Activity (Candida tropicalis [2]): inactive
- Activity (Candida tropicalis [4]): Active
- Activity (Candida tropicalis [5]): inactive
- Activity (Candida tropicalis [6]): inactive
- Activity (Candida tropicalis [7]): inactive
- Activity (Candida tropicalis [8]): inactive
- Activity (Candida tropicalis [11]): inactive
- Activity (Candida tropicalis [13]): inactive
- Activity (Candida tropicalis [15]): inactive
- Activity (Candida tropicalis [16]): inactive
- Activity (Candida tropicalis [18]): inactive
- Activity (Candida tropicalis [21]): inactive
- Activity (Candida tropicalis [22]): inactive
- Activity (Candida tropicalis [23]): inactive
- Activity (Candida tropicalis [26]): inactive
- Activity (Candida tropicalis [27]): inactive
- Activity (Candida tropicalis [28]): inactive
- Activity (Candida tropicalis [29]): Active
- Activity (Candida tropicalis [30]): inactive
- Activity (Candida tropicalis [35]): Active
- Activity (Candida tropicalis [36]): inactive
